From patent US10568945B2, “Compositions and methods for inducing liver regeneration by administering hepatocyte-derived exosomes” (University of Cincinnati, priority 2014, dated 2020) come the findings set out here.

“Also recorded” adds a separate entry of the source.

For series [1], the system named is primary mouse hepatocytes. Briefly: Hepatocyte proliferation (BrdU incorporation).
Method: (A) Primary mouse hepatocytes from wild-type mice were treated with increasing doses of exosomes derived from wild-type or CXCR2-deficient hepatocytes for 24 hrs. Cell proliferation was determined via BrdU incorporation. Data are mean±SEM with n=8-16 per group. *P<0.05 compared to control mice. **P<0.05 compared to untreated samples.
Hepatocytes were treated with hepatocyte-derived exosomes for 24 hrs. DNA incorporation of 5-bromo-20-deoxyuridine (BrdU) was employed to evaluate hepatocyte proliferation by exosomes, and data were normalized by the amount of viable cells and expressed as a ratio compared with medium alone. A commercial BrdU cell proliferation ELISA system (Abcam, Cambridge, UK) was used for this assay.
The subject of series [2] is isolated wildtype and CXCR2-deficient hepatocytes. The series is described as follows: Release of exosomes from isolated hepatocytes (CD81 antigen ELISA). Type of series: cell-based, mouse. The conditions noted are these: GW4869 for 48 hrs. The protocol:
FIG. 2. CXCR2 regulates the neutral sphingomyelinase/ceramide system to release exosomes. (A) CXCR2-deficient cells show higher concentrations of ceramide than wildtype hepatocytes as determined by staining of isolated hepatocytes with Cy3-coupled anti-ceramide antibodies (A, upper panel). The intensity of the fluorescence staining in panel a reflects ceramide levels. […] Data are representative for 4 similar stainings. (B) Ceramide activity in hepatocytes was determined by a ceramide kinase assay. Data are mean±SEM with n=4 per group. *P<0.05 compared to wild-type mice. (C) Neutral sphingomyelinase activity is increased in CXCR2-deficient hepatocytes compared to wild-type mice. Data are mean±SEM with n=4 per group. *P<0.05 compared to wild-type mice. […] Cells were treated with GW4869 for 48 hrs in Williams media supplemented with exosome-depleted FBS and the number of exosomes was determined using differential centrifugation and detection of exosomes using a CD81 antigen ELISA kit. Data are mean±SEM with n=4 per group, *P<0.05 compared to wild-type mice. […]
Exosomes were purified from serum and the culture media. […] The size of exosomes in the serum and the culture medium was determined using a Zetasizer Nano (Malvern Instruments, Malvern, UK) and the number of exosomes was assessed by the CD81-antigen ELISA kit (System Biosciences).

The test system of series [3] is sphingosine-1-phosphate (S1P) in hepatocytes. The series is described as follows: Measurement of S1P in hepatocytes by ELISA. Type of series: cell-based, mouse. The conditions noted are these: pre-incubation of hepatocytes with SPHK I2 (20 μM).

On to `Nc1ncnc2c1ncn2[C@@H]1O[C@H](COC(=O)c2ccc(S(=O)(=O)F)cc2)[C@@H](O)[C@H]1O` [FSBA], for which, in series [1] (exosomes treated with FSBA, washed, then added to primary hepatocytes), the exosome-induced hepatocyte proliferation result is “completely blocked”.
`O=C(/C=C/c1ccc(/C=C/C(=O)Nc2ccc(C3=NCCN3)cc2)cc1)Nc1ccc(C2=NCCN2)cc1` [GW4869]: the “concentration/release of exosomes from hepatocytes” value in series [2] is listed as “dose dependently blocked; also recorded: dose-dependently reduced”.
For the compound `Oc1ccc(Nc2nc(-c3ccc(Cl)cc3)cs2)cc1` [SPHK I2], the “exosome-induced production of S1P in hepatocytes” value in series [3] was “prevented; also recorded: completely blocked”. The exosome-induced hepatocyte proliferation entry in series [1] (hepatocytes treated with 5-20 μM SPHK I2) is reported as “completely abrogated”.
